Laboratory results from ChEMBL document CHEMBL1122587 (J Med Chem, 1984).
Numbered stars: 1 amine (or outer) side, 2 acyl side, 3 side chain; on linkers, the order of the positions; unused ones are H or OH. Bridge positions count the residues as written; N and C are the ends. Square brackets hold non-standard residues; d marks the D form. Peptide text beside a SMILES is read from it. I, II: the chains in the order shown. Actinocin(9to1) = Cc1c2oc3c(C)ccc(C(=O)[*:1])c3nc-2c(C(=O)[*:2])c(N)c1=O; NMeV = CN[C@H](C(=O)O)C(C)C; Sar = CNCC(=O)O

Key:
Type in all cases: physicochemical
[1] = Partition coefficient (logP); conditions: octanol/water
[2] = Partition coefficient (logD) (0.1 N NaOH)
[3] = log P value was reported at a pH 2.0; conditions: buffer

logP ([1]; read-out: logP)	Molecule	also measured
0.03	COc1ccc(C[C@H](N)C(=O)N[C@H]2[C@@H](O)[C@H](n3cnc4c(N(C)C)ncnc43)O[C@@H]2CO)cc1 [PUROMYCIN]	–
–	CISPLATIN	logP [1]: -1.45
3.21	Cc1c2oc3c(C)ccc(C(=O)N[C@@H]4C(=O)N[C@H](C(C)C)C(=O)N5CCC[C@H]5C(=O)N(C)CC(=O)N(C)[C@@H](C(C)C)C(=O)O[C@@H]4C)c3nc-2c(C(=O)N[C@@H]2C(=O)N[C@H](C(C)C)C(=O)N3CCC[C@H]3C(=O)N(C)CC(=O)N(C)[C@@H](C(C)C)C(=O)O[C@@H]2C)c(N)c1=O [DACTINOMYCIN] (I: T[dV]P[Sar][NMeV] / II: T[dV]P[Sar][NMeV]; ester I:1-I:C, II:1-II:C; linker I:N-II:N via Actinocin(9to1))	–
-1.8	NC(=O)NO [HYDROXYUREA]	–
–	COCCOc1c(OC)cc(Cc2cnc(N)nc2N)cc1OC [TETROXOPRIM]	logD ([2]; octanol/water): 0.6
–	CN(Cc1cnc2nc(N)nc(N)c2n1)c1ccc(C(=O)N[C@@H](CCC(=O)O)C(=O)O)cc1 [METHOTREXATE]	logD [3]: -2.59
–	COc1ccc(OC)c(Cc2cnc3nc(N)nc(N)c3c2C)c1 [PIRITREXIM]	logD ([2]; 0.1 N NaOH, read-out: logD): 2.13
–	CO[C@@]12[C@H](COC(N)=O)C3=C(C(=O)C(C)=C(N)C3=O)N1C[C@@H]1N[C@@H]12 [MITOMYCIN]	logP [1]: -0.47
0.66	COc1cccc2c1C(=O)c1c(O)c3c(c(O)c1C2=O)C[C@@](O)(C(C)=O)C[C@@H]3O[C@H]1C[C@H](N)[C@H](O)[C@H](C)O1 [DAUNORUBICIN]	–
0.1	COc1cccc2c1C(=O)c1c(O)c3c(c(O)c1C2=O)C[C@@](O)(C(=O)CO)C[C@@H]3O[C@H]1C[C@H](N)[C@H](O)[C@H](C)O1 [DOXORUBICIN]	–
